Here are results for 16 compounds from ChEMBL document CHEMBL1909046, “DrugMatrix in vitro pharmacology data”.

Data set [1] has as its target T1, Alpha-1D adrenergic receptor (Homo sapiens, UniProt P25100). Further: in other assays of this panel Not Active means under 50% inhibition at 10 µM.
T1 sequence (P25100 whole entry): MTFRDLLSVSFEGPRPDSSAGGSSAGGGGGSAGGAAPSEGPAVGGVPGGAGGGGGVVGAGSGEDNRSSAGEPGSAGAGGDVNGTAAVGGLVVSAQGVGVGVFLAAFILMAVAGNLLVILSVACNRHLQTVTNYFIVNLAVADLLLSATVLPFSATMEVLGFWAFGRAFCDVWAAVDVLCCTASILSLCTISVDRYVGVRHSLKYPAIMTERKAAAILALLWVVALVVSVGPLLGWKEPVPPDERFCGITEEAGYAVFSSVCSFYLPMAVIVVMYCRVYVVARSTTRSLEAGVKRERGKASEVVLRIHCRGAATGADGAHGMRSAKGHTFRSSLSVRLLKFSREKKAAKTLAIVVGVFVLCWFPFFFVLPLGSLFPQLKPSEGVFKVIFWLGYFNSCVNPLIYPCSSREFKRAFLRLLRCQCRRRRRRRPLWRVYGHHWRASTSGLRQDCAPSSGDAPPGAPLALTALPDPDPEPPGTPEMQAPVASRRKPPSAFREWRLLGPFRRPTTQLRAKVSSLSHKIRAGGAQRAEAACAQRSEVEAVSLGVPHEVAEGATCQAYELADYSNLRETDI
The class given is cell membranes, HEK293, Membrane.

The nature of data set [2]: DRUGMATRIX: ATPase, Na+/K+ enzyme inhibition (substrate: ATP). As to conditions: Not Active = under 50% inhibition at 10 µM. The class given is tissue-based, Sus scrofa, Heart.
Data set [3] addresses T2, Cysteinyl leukotriene receptor 1 (Homo sapiens, UniProt Q9Y271).
T2 sequence (Q9Y271 whole entry): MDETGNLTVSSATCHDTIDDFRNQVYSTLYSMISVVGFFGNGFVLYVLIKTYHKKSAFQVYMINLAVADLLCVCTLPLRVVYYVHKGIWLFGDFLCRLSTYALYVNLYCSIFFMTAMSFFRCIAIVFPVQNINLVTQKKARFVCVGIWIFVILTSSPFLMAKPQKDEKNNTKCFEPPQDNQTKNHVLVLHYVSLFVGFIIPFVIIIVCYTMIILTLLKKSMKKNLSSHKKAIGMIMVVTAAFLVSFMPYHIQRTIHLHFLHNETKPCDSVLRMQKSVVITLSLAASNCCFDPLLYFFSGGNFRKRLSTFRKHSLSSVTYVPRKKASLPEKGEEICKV
The class given is cell membranes, CHO-K1, Membrane. To be noted: cho-k1.

Data set [4] deals with T3, Amine oxidase [flavin-containing] A (Homo sapiens, UniProt P21397).
T3 sequence (P21397 whole entry): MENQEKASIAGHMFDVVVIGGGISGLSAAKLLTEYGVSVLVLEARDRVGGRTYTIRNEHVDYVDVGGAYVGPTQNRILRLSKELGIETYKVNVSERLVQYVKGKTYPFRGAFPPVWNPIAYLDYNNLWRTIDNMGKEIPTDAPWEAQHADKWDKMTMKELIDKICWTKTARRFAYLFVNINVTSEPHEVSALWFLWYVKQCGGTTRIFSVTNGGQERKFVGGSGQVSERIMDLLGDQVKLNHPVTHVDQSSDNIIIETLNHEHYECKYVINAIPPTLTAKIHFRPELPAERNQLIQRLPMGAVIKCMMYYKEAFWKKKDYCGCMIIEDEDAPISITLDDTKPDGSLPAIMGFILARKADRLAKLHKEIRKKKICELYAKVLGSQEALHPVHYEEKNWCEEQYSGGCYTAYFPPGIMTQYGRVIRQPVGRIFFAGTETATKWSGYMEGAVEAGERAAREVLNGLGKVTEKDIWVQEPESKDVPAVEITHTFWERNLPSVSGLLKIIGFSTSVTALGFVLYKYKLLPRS
Briefly: DRUGMATRIX: Monoamine Oxidase MAO-A enzyme inhibition (substrate: Kynuramine). More on the design: species or system BTI-TN-5B1-4. As to conditions: bti-tn-5b1-4; Not Active = under 50% inhibition at 10 µM.

The target in another data set is T4, Neutrophil elastase (Homo sapiens, UniProt P08246).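 Further: inhibition of neutrophil elastase enzyme activity, measured with a p-nitroanilide-linked peptide substrate; in other assays of this panel Not Active means under 50% inhibition at 10 µM.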
T4 sequence (P08246 whole entry): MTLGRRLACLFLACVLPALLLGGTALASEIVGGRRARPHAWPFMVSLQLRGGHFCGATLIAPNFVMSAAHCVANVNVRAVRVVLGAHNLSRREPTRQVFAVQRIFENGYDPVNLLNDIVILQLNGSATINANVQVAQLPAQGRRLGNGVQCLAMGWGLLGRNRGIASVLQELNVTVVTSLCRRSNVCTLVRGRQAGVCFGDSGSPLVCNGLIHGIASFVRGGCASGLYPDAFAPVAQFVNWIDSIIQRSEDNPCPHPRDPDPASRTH
The class given is tissue-based.

The target of data set [5] is Tyrosine-protein kinase Lck (Homo sapiens, UniProt P06239). Briefly: DRUGMATRIX: Protein Tyrosine Kinase, LCK enzyme inhibition (substrate: Poly(Glu:Tyr)). The class given is cell-based, Insect cells. As to conditions: insect cells; Not Active = under 50% inhibition at 10 µM.
The target in another data set is Cytochrome P450 2E1 (Homo sapiens, UniProt P05181). To be noted: bti-tn-5b1-4. Further: in other assays of this panel Not Active means under 50% inhibition at 10 µM.
Cytochrome P450 2E1, sequence (P05181 whole entry): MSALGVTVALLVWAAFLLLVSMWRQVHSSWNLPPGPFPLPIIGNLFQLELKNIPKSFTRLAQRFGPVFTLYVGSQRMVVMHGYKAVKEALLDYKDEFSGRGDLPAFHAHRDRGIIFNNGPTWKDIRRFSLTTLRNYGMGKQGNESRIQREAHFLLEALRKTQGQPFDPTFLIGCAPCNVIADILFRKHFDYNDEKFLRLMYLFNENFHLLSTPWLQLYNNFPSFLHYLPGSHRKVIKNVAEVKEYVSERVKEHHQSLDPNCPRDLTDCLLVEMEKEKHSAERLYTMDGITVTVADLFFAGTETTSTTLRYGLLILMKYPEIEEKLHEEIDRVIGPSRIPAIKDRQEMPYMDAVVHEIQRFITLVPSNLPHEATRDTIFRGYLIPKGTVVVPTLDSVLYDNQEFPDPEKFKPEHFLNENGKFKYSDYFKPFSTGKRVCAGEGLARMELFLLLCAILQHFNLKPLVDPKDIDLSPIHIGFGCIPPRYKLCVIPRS

Tyrosine-protein kinase Lck, sequence (P06239 whole entry): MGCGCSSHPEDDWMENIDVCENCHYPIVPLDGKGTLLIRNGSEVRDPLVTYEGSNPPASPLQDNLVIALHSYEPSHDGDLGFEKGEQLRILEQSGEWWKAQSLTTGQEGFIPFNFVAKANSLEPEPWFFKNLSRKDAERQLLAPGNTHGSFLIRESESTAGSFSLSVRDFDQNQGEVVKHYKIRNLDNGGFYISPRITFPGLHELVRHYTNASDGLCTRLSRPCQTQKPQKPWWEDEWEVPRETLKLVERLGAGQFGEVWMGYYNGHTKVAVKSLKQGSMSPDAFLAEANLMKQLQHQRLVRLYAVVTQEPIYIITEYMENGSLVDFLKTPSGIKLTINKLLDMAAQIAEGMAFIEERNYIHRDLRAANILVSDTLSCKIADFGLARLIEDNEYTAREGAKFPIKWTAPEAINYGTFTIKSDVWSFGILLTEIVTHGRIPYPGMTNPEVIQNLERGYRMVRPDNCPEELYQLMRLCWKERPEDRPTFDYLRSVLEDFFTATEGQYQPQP

Consider `C[N+](C)(C)CCOC(N)=O.[Cl-]` [CARBACHOL], for which the IC50 entry (in data set [1] (hek293); in data set [2]; in data set [3]; in data set [4]; at Neutrophil elastase; in data set [5]) was “Not Active” throughout. For the same compound, the IC50 result on Cytochrome P450 2E1 was “Not Active”. Moreover, the Ki entry (in data set [2]; at Cytochrome P450 2E1) was “Not Active” in each case.

Take `C[C@]12CC[C@@H](O)C[C@@H]1CC[C@@H]1[C@@H]2CC[C@]2(C)C(=O)CC[C@@H]12` [ANDROSTERONE]: the IC50 result (in data set [1] (hek293); in data set [2]; in data set [3]; in data set [4]; against Neutrophil elastase; in data set [5]) was “Not Active” in each case. Also, at Cytochrome P450 2E1, the IC50 entry is given as “Not Active”. For the same compound, the Ki entry (in data set [2]; at Cytochrome P450 2E1) was “Not Active” each time.

For `C[C@H](C(=O)O)c1ccc2oc(-c3ccc(F)cc3)nc2c1` [FLUNOXAPROFEN], the IC50 entry (in data set [1] (hek293); in data set [2]; in data set [3]; in data set [4]; on Neutrophil elastase; in data set [5]) was “Not Active” each time. Besides, the IC50 result against Cytochrome P450 2E1 is “Not Active”. Further, the Ki entry (in data set [2]; on Cytochrome P450 2E1) was “Not Active” in each case.

On to COPPER(II) OXIDE, for which the IC50 result (in data set [1] (hek293); in data set [2]; in data set [3]; in data set [4]; against Neutrophil elastase; in data set [5]) was “Not Active” in each case. Also, the IC50 entry on Cytochrome P450 2E1 is “Not Active”. Further, the Ki result (in data set [1] (hek293); in data set [2]; in data set [3]; in data set [4]; at Neutrophil elastase; in data set [5]) was “Not Active” each time. In addition, the Ki entry at Cytochrome P450 2E1 was “Not Active”.

As for `NC(=O)CN1CCCC1=O`, the IC50 entry (in data set [1] (hek293); in data set [2]; in data set [3]; in data set [4]; at Neutrophil elastase; in data set [5]) was “Not Active” in each case. In addition, the IC50 result on Cytochrome P450 2E1 was “Not Active”. In addition, the Ki result (in data set [2]; on Cytochrome P450 2E1) was “Not Active” each time.

Consider `O=C1c2ccccc2C(=O)C1c1ccccc1` [PHENINDIONE], for which the IC50 result (in data set [1] (hek293); in data set [2]; in data set [3]; in data set [4]; at Neutrophil elastase; in data set [5]) was “Not Active” throughout. Further, on Cytochrome P450 2E1, the IC50 entry is reported as “Not Active”. In addition, the Ki entry (in data set [2]; on Cytochrome P450 2E1) was “Not Active” throughout.

Turning to `CCN1C[C@]2(COC)[C@H](O)C[C@H](OC)[C@@]34[C@@H]5C[C@@]6(O)[C@H](OC(=O)c7ccccc7)[C@@H]5[C@@](OC(C)=O)([C@@H]([C@H](OC)[C@H]23)[C@@H]14)[C@@H](O)[C@@H]6OC` [ACONITINE], the IC50 result (in data set [1] (hek293); in data set [2]; in data set [3]; in data set [4]; against Neutrophil elastase; in data set [5]) was “Not Active” in each case. Besides, the IC50 result on Cytochrome P450 2E1 is listed as “Not Active”. In addition, the Ki entry (in data set [2]; at Cytochrome P450 2E1) was “Not Active” in each case.

As for `O=C(NCCN1CCOCC1)c1ccc(Cl)cc1` [MOCLOBEMIDE], the IC50 entry (in data set [1] (hek293); in data set [2]; in data set [3]; in data set [4]; at Neutrophil elastase; in data set [5]) was “Not Active” throughout. Moreover, the IC50 result against Cytochrome P450 2E1 is listed as “Not Active”. Besides, the Ki result (in data set [2]; at Cytochrome P450 2E1) was “Not Active” throughout.

Turning to `O=C(O)COC(=O)Cc1ccccc1Nc1c(Cl)cccc1Cl` [ACECLOFENAC], the IC50 entry (in data set [1] (hek293); in data set [2]; in data set [3]; in data set [4]; on Neutrophil elastase; in data set [5]) was “Not Active” each time. Moreover, the IC50 entry against Cytochrome P450 2E1 is given as “Not Active”. The Ki entry (in data set [2]; at Cytochrome P450 2E1) was “Not Active” each time.

On to `COc1cc(/C=C/C(=O)O)ccc1O` [FERULATE], for which the IC50 result (in data set [1] (hek293); in data set [2]; in data set [3]; in data set [4]; at Neutrophil elastase; in data set [5]) was “Not Active” each time. Also, the IC50 result at Cytochrome P450 2E1 was “Not Active”. Besides, the Ki result (in data set [2]; on Cytochrome P450 2E1) was “Not Active” each time.

With `O=c1[nH]c2ccccc2c2ccccc12`, the IC50 entry (in data set [1] (hek293); in data set [2]; in data set [3]; in data set [4]; at Neutrophil elastase; in data set [5]) was “Not Active” each time. Further, the IC50 result at Cytochrome P450 2E1 is reported as “Not Active”. For the same compound, the inhibition constant (Ki) result (in data set [2]; on Cytochrome P450 2E1) was “Not Active” in each case.

In the case of `COc1ccc(C[C@H](N)C(=O)N[C@H]2[C@@H](O)[C@H](n3cnc4c(N(C)C)ncnc43)O[C@@H]2CO)cc1` [PUROMYCIN], the IC50 result (in data set [1] (hek293); in data set [2]; in data set [3]; in data set [4]; against Neutrophil elastase; in data set [5]) was “Not Active” throughout. Besides, on Cytochrome P450 2E1, the IC50 result was “Not Active”. For the same compound, the Ki result (in data set [2]; on Cytochrome P450 2E1) was “Not Active” throughout.

Consider `NC(=O)NC(=O)Cc1ccccc1` [PHENACEMIDE], for which the IC50 result (in data set [1] (hek293); in data set [2]; in data set [3]; in data set [4]; at Neutrophil elastase; in data set [5]) was “Not Active” each time. At Cytochrome P450 2E1, the IC50 entry was “Not Active”. Besides, the Ki entry (in data set [2]; at Cytochrome P450 2E1) was “Not Active” each time.

`COc1ccccc1OCCNCC(O)COc1cccc2[nH]c3ccccc3c12` (configuration not stated) [CARVEDILOL]: the IC50 in data set [1] (read-out: IC50) was 1.8 nM; in data set [2] it was “Not Active”; in data set [3], “Not Active”; in data set [4], “Not Active”; at Neutrophil elastase it was “Not Active”; in data set [5], “Not Active”. Besides, the IC50 result against Cytochrome P450 2E1 is reported as “Not Active”. For the same compound, the Ki in data set [1] (read-out: Ki) was 0.883 nM; in data set [2], “Not Active”; on Cytochrome P450 2E1, “Not Active”.

Regarding `Cc1cc(C(C)(C)C)c(O)c(C)c1CC1=NCCN1` [OXYMETAZOLINE], the IC50 result (in data set [2]; in data set [3]; in data set [4]; on Neutrophil elastase; in data set [5]; at Cytochrome P450 2E1) was “Not Active” each time. Also, the Ki entry (in data set [2]; on Cytochrome P450 2E1) was “Not Active” in each case.

For the compound `O=C(O)CNCP(=O)(O)O` [GLYPHOSATE], the IC50 entry (in data set [1] (hek293); in data set [2]; in data set [3]; in data set [4]; against Neutrophil elastase; in data set [5]) was “Not Active” throughout. Besides, the Ki entry in data set [2] is “Not Active”.
